Laboratory results published in article PMC11864979, “First-in-class ultralong-target-residence-time p38α inhibitors as a mitosis-targeted therapy for colorectal cancer” (Nature Cancer, 2025).
Several values for one entry are separate records, joined by “and”; a condition that tells them apart may be missing. Identical values can stand only once.

Legend:
[1] = system: BAP organoids; assay: cell viability in BAP organoids; format: cell-based, mouse; conditions: for therapeutic effect in BAP organoids (in words): 4 days
Description: A total of 1,000–2,000 single cells were plated per well in white 96-well plates (Greiner) in culture medium containing 10% GFR Matrigel or Cultrex BME. The treatment with doxycycline (5 µg ml^−1), pharmacological inhibitors or corresponding volumes of DMSO was started 24 h after plating. Doxycycline was obtained from Sigma-Aldrich. […] Results were normalized to vehicle (DMSO) or to shNC. For cell-doubling assays, the cell number was quantified at the corresponding time points using Guava EasyCyte flow cytometer (Luminex, CytoSoft v5.2 software).

[2] = in vivo pharmacokinetic studies in mice (plasma, LC-MS); design: species or system mouse; conditions: for concentration at 0 min: 20 mg kg^−1, 0 min of treatment; for concentration at 90 min: 20 mg kg^−1, 90 min of treatment; for AUC / half-life / C^max / t^max: oral administration in mice, 20 mg kg^−1
Description: No mice were excluded during treatment studies. […] GFP imaging of tumors was performed using a Hamamatsu imaging system. For quantification of compounds in the murine plasma, 20 μl of tail-vein blood was diluted with 80 μl of heparin solution, before 200 μl of ice-cold acetonitrile with a defined internal standard was added. The samples were sonicated and centrifuged and the supernatant was subjected to liquid chromatography-mass spectrometry quantification. Full blood analyses were performed with the Sysmex KX-21N hematology analyzer.

[3] = target: T1, 340 wild-type kinases (Homo sapiens, UniProt Q9UQM7); assay: selectivity profiling in a panel of 340 wild-type kinases (Reaction Biology Europe); format: binding; conditions: CAMK2A; 0.2 µM; read-out: residual activity
T1 construct: purchased Reaction Biology Europe
Description: Potential interactions between 2015 and 340 wild-type kinases were checked by means of a competition binding assay performed by Reaction Biology Europe (Supplementary Table 15).

[4] = system: KAP^2D cells; assay: SA-β-Gal senescence staining and senescence markers in CRC cells and organoids; format: cell-based, mouse; conditions: 5 days
Description: SA-β-Gal staining was carried out on sections of snap-frozen tumor tissues. The samples were fixed with 0.5% glutaraldehyde solution (in PBS pH 7.4) for 15 min at room temperature and then washed once with PBS and twice with 1 mM MgCl2 in PBS pH 5.5 (5 min each, at room temperature). Subsequently, the samples were incubated with X-Gal solution (2.45 mM X-Gal, 5 mM K3Fe(CN)6, 5 mM K4Fe(CN)6 and 1 mM MgCl2 in PBS pH 5.5) at 37 °C overnight protected from light. Upon staining, the samples were washed three times with PBS (5 min each), fixed with 4% formalin in PBS for 30 min and again washed with PBS (5 min each, at room temperature).
Immunofluorescence staining on cells and organoids was performed on glass coverslips or tissue culture chambers (Sarstedt). Organoids were plated in medium containing 10% Matrigel or Cultrex BME. The cultures were fixed with 4% paraformaldehyde and stained with specific antibodies and DAPI (Vector Labs). All used antibodies and dilutions are listed in the Nature Portfolio Reporting Summary. For analyzing DNA synthesis, the Molecular Probes Click-iT EdU Alexa Fluor 555 kit was used 24 h after EdU incorporation with DAPI counterstaining. SA-β-Gal staining of cells was performed in cell culture dishes (cells) or tissue culture chambers (organoids) after fixation with 0.5% glutaraldehyde as described above. […]

[5] = cell viability after 2015, Navitoclax or 2015 + Navitoclax (Fig. 5f); format: cell-based; design: concentration or dose not given beside the values; conditions: replicates
[6] = target: T2, recombinant human active p38α protein, MK2 and Wee1 (Homo sapiens, UniProt Q16539); assay: p38α–Wee1 kinase assay (western blot); format: biochemical; conditions: 1 µM
T2 construct: purchased Abcam (p38α, MK2); Novus Biologicals (Wee1) ab271647; ab79910; H00007465-P01
Description: Briefly, 200 ng of corresponding proteins were preincubated with 1 µM 2015 or DMSO in a kinase assay buffer (Abcam, ab189135; total volume, 100 µL) for 30 min at 37 °C. Kinase activity was induced with 20 µM ATP. Following a 30-min incubation at 37 °C, the reaction was stopped by protein inactivation (95 °C, 5 min in Laemmli buffer). The antibodies and dilutions for immunoblotting are listed in the Nature Portfolio Reporting Summary.

[7] = system: KMP liver metastasis; assay: survival of mice with KMP liver metastasis; format: in vivo, mouse
Description: Subcutaneous injection, splenic seeding or cecum injection of organoids was performed in 8–10-week-old C57BL/6 N/Crl, Rag2^−/− (B6.Cg-Rag2^tm1.1Cgn/J), or CB17 Scid beige (CB17.Cg-Prkdc^scidLyst^bg-J/Crl) mice, obtained from Charles River. The organoids were dissociated into single cells, washed with PBS and injected in a 1:1 mixture of PBS and Matrigel. For murine organoids, 1 × 10^5 cells were injected into the left and right flanks or the spleen capsule and 2 × 10^6 cells were injected into the cecum wall. For human organoids, 4 × 10^5 cells were injected into the flanks of CB17 Scid beige mice. For splenic seeding and cecum injection, mice were anaesthetized using ketamine (100 mg kg^−1, intraperitoneally) and xylazin (10 mg/kg, intraperitoneally) in NaCl and a small laparotomy below the thorax was performed.

[8] = Fig. 2j, 0,5 µM, replicates, 5 µM
[9] = 0 min of treatment, individual animals
[10] = 45 min of treatment, individual animals
[11] = 90 min of treatment, individual animals
[12] = 180 min of treatment, individual animals
[13] = 480 min of treatment, individual animals
[14] = 1440 min of treatment, individual animals
[15] = mouse, plasma, oral, individual animals

T2 sequence (Q16539 whole entry): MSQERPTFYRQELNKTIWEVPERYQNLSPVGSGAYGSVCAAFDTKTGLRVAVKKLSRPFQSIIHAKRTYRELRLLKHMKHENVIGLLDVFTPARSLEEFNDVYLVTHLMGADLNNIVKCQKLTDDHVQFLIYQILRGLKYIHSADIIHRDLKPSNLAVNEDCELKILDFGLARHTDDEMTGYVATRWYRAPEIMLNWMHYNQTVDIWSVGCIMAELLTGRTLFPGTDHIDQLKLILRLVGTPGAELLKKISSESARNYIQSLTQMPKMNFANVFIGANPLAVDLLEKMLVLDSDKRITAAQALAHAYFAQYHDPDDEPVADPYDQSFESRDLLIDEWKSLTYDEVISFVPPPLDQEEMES
T1 sequence (Q9UQM7 whole entry): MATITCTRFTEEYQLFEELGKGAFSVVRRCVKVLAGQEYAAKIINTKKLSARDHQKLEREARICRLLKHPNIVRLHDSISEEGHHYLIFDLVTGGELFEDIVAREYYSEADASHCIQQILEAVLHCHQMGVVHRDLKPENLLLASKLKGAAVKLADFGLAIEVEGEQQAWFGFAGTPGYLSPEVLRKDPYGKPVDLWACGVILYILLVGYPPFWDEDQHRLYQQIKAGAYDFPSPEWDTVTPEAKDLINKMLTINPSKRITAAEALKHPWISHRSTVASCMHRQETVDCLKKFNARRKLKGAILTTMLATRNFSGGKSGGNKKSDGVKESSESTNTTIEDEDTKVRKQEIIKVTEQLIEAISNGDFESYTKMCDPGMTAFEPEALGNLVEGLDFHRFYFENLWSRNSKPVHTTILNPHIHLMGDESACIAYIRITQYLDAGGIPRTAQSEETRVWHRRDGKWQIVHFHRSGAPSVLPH

SMILES	therapeutic effect in BAP organoids (in words) [1]	Cell viability (%) [1, 8]	Cell viability (%) ([1]; Fig. 2j, 0,25 µM, replicates)	Cell viability (%) ([1]; Fig. 2j, 1 µM, replicates)	Plasma concentration [2, 9] [µM]	Plasma concentration [2, 10]	Plasma concentration [2, 11]	Plasma concentration [2, 12]	Plasma concentration [2, 13]	Plasma concentration [2, 14]	concentration at 0 min [2, 15] [µM]	concentration at 90 min [2, 15] [µM]	AUC ([2]; mouse, plasma) [µM·h]	half-life ([2]; mouse, plasma) [h]	C^max [2] [µM]	t^max [2] [min]	also measured
O=C(NCCN1CCOCC1)c1ccc2c(c1)C(=O)c1ccc(Nc3ccc(F)c(NC(=O)c4ccccc4)c3)cc1CC2 [Compound 1639]	no therapeutic effects	89.71% and 139.45% and 151.95%	99.59% and 127.60% and 118.40%	87.55% and 125.47% and 95.41%	0.00	7.88 µM and 3.04 µM and 8.11 µM	5.28 µM and 6.24 µM	4.65 µM and 2.91 µM and 1.27 µM	0.69 µM and 0.19 µM and 0.76 µM	0.00 µM	0	8.68	27.6	2	6.7	90	concentration at 1440 min ([2]; mouse, plasma, oral, 20 mg kg^−1, 1440 min of treatment, individual animals): 0 µM
CNC(=O)c1ccc2c(c1)C(=O)c1ccc(Nc3ccc(F)c(NC(=O)C4CC4)c3)cc1CC2 [Compound 2015]	increased responsiveness	18.53% and 25.34%	71.10% and 78.07% and 119.22%	28.06% and 32.78%	0.00	20.46 µM and 14.73 µM	17.75 µM and 16.83 µM	13.04 µM and 13.78 µM	2.27 µM and 3.36 µM	0.20 µM and 0.04 µM (2×)	0	25.2	121	2.68	20.7	45	remaining activity at 0.2 µM [3]: 102%; senescence (SA-β-Gal, p16^Ink4a, HMGA2) (in words) [4]: clear senescence phenotype; viability at 5 µM ([1]; Mus musculus, Fig. 2j, 0,5 µM, replicates): 21.1%; viability at 1 µM ([1]; Mus musculus, Fig. 2j, 1 µM, replicates): 29.7%; concentration at 45 min ([2]; mouse, plasma, oral, 20 mg kg^−1, 45 min of treatment, individual animals): 26.8 µM; concentration at 180 min ([2]; mouse, plasma, oral, 20 mg kg^−1, 180 min of treatment, individual animals): 17 µM; concentration at 480 min ([2]; mouse, plasma, oral, 20 mg kg^−1, 480 min of treatment, individual animals): 4.26 µM; Cell viability [5]: 58.51% and 44.25% and 42.17%; p38α–MK2-mediated phosphorylation of Wee1 at S642 (in words) [6]: blocked; Survival (d of treatment) ([7]; individual mice, KMP liver metastasis, treatment started 1 week after transplantation): 42 days and 50 days and 29 days and 31 days and 35 days and 44 days; Kaplan–Meier event entry in 2015 (1 or 0) ([7]; individual mice, KMP liver metastasis, meaning of 1/0 not given): 1 and 0; survival of mice with KMP liver metastasis (in words) ([7]; long-term treatment): significantly prolonged survival
